pIC50: −log10 of the molar value.
Target: T1, 5-lipoxygenase (5-LO) (Homo sapiens, UniProt P09917)
T1 sequence (P09917 1-674): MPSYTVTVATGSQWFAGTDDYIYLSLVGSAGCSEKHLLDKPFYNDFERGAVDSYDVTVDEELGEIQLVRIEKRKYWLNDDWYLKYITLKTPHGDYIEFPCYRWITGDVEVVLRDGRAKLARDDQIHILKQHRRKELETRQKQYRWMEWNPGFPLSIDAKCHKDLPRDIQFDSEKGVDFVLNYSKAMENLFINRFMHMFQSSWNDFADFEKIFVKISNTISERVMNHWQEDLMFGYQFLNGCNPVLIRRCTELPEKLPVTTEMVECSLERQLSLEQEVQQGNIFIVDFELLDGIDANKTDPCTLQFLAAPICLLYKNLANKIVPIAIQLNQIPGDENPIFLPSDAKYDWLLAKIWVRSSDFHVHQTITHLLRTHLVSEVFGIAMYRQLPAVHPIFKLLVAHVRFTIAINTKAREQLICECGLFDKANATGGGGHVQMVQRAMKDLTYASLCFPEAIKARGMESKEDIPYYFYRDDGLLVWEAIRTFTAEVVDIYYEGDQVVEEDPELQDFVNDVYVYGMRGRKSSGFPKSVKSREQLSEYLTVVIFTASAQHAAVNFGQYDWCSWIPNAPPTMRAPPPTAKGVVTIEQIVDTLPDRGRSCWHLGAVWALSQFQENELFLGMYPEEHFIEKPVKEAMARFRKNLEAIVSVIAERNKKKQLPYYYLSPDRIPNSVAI
Test: cell-free 5-LO activity assay with arachidonic acid, products by HPLC
Type: biochemical

O=C1Nc2ccccc2/C1=C1/Nc2ccccc2/C1=N\O [I3MO, Indirubin-3′-monoxime]
pIC50: 5.00 to 5.11

Source: article PMC3928003 (Cardiovascular Research, 2013)
